According to patent US20080032918A1, “Mast cell-derived renin” (Cornell Research Foundation, Inc., priority 2003, published 2008):
Entries after “also recorded” stand apart in the source; their conditions may differ.

How the values were obtained:
[1] = test system: cardiac sympathetic nerve endings; assay: norepinephrine release from isolated cardiac sympathetic nerve endings incubated with angiotensinogen; format: cell-based, guinea pig; conditions: nerve endings incubated with BILA2157 10 nM, enalaprilat 30 nM or EXP 3174 10 nM
From the text: Preparation ofguinea-pig sympathetic nerve endings: Cardiac sympathetic nerve endings were isolated from guinea-pig hearts as previously described (Seyedi et al., J Pharmacol Exp Ther 290: 656-663, 1999; Seyedi et al., Circ. Res. 81: 774-784, 1997). Spontaneously beating hearts were isolated as previously described by the inventors (Hatta et al., J. Pharmacol. Exp. Ther. 288: 919-927, 1999; Park et al., Circ. Res. 71: 992-1001, 1992). Briefly, male Hartley guinea pigs were anesthetized with CO2 vapor and then exsanguinated. Hearts were perfused through the aorta for 15 min at constant pressure with Ringer's solution at 37° C. (Park et al., Circ. Res. 71: 992-1001, 1992) to exclude blood from the coronary circulation. Hearts were minced in 0.32 M sucrose containing 1 mM EGTA. The minced tissue was then digested with 75 mg collagenase per 10 ml HBS per gm for 1 hr at 37° C. After low speed centrifugation the resulting pellet were suspended in 10 volumes of 0.32 M sucrose and homogenized with a Teflon/glass homogenizer. The homogenate was centrifuged at 650g for 10 min, the pellet was re-homogenized and the homogenate was centrifuged again. The pellet containing cellular debris was discarded, the supernatants from the last two spins were combined, the pooled supernatant was equally subdivided into 4 to 8 tubes and re-centrifuged for 20 min at 20,000g at 4° C. This pellet contains cardiac sympathetic nerve endings. The pellet was resuspended either in HEPES-buffered saline (HBS; 500 μl, normoxic conditions) or in glucose-free HBS, which contained the reducing agent sodium dithionite (500 μl, ischemic conditions), and incubated in the absence or presence of angiotensinogen (1 hr) or other agents for 20 min at 37° C. prior to ischemia (see below). Each suspension was used only once as an independent sample.
Norepinephrine assay: Coronary effluent and synaptosome supernatant will be assayed for NE by HPLC with electrochemical detection (ESA). […]

mast-cell-derived renin = biological target: T1, mast-cell-derived renin (Homo sapiens, UniProt P00797); assay: renin activity (ANG I formed, RIA) of HMC-1 cell releasate incubated with human angiotensinogen; format: biochemical; conditions: BILA2157 100 nM
T1 construct: endogenous in cells; host or cells: HMC-1 human mastocytoma cell line, degranulated with compound 48/80
T1 sequence (P00797 67-406): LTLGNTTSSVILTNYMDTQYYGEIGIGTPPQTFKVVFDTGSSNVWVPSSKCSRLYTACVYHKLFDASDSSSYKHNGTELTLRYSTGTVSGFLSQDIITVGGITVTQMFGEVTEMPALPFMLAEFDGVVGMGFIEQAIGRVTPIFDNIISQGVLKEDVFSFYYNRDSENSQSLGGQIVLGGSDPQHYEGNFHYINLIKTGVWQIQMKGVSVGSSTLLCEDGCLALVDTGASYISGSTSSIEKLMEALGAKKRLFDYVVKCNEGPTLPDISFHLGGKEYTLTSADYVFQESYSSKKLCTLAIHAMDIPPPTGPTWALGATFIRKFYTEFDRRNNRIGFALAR
Experimental: Renin activity: Pooled confluent flasks of HMC-1 cells, or individual wells of HMC-1 cells, were pelleted and resuspended in HEPES buffer (pH 5.7, 1 mM EDTA) containing the mast-cell degranulating agent compound 48/80 (100 μg/ml or 20 μg/ml; Sigma). After 30 min, cells were spun down and the renin-containing supernatant was incubated with increasing concentrations of human angiotensinogen (Sigma). Renin activity (ANG I formed) was then determined using a GammaCoat Plasma Renin Activity 1251 Radioimmunoassay kit (DiaSorin, Mass.). The selective renin inhibitor BILA2157 was from Boehringer Ingelheim.
The cell releasate was incubated with increasing concentrations of angiotensinogen and then assayed for ANG I formed (i.e. renin activity) by RIA. A concentration-response curve for ANG I formation as a function of angiotensinogen concentration was generated on the HMC-1 releasate. The amount of ANG I formed increased with angiotensinogen concentration. […]
FIG. 4F illustrates that mast-cell-derived renin can be synthesized in mast cells. Releasates were analyzed from the same population of HMC-1 exposed to compound 48/80 (20 μg/ml) 48 hours apart, and analyzed for BILA2157-sensitive renin activity.

[2] = test system: isolated normoxic guinea pig hearts; assay: chronotropic response and norepinephrine overflow in normoxic isolated hearts challenged with 48/80; conditions: BILA 2157 100 nM, lodoxamide 30 μM
From the text: These findings indicate that cardiac mast cells are capable of releasing active renin, which then leads to local formation of ANG II causing norepinephrine exocytosis.

guinea-pig hearts = assay: ischemia-reperfusion in guinea pig hearts ex vivo (Langendorff); conditions: 20-min global ischemia, 45-min reperfusion, lodoxamide 10 μM; for ventricular fibrillation during reperfusion: BILA2157 100 nM; for renin overflow into coronary effluent on reperfusion: BILA 2157 100 nM
Experimental: Ischemia-reperfusion in guinea pig hearts ex vivo: Guinea-pig hearts will be perfused for 30 min prior to ischemia. Inamura et al., Circ. Res. 78: 475-481 (1996). Normothermic 20-min global ischemia will be induced by complete cessation of coronary perfusion, followed by 45-min reperfusion. Coronary effluent will be assayed for renin activity and NE.
Guinea-pig hearts were perfused ex vivo at constant pressure in a Langendorff apparatus and subjected to 20-min. stop-flow global ischemia, followed by 45-min. reperfusion (Hatta, E., R. Maruyama, S. J. Marshall, M. Imamura, and R. Levi. Bradykinin promotes ischemic norepinephrine release in guinea pig and human hearts. J. Pharmacol. Exp. Ther. 288: 919-927 (1999)). Surface ECG and coronary flow were continuously monitored; the coronary effluent was assayed for renin activity (i.e., ANG I generated as described herein). There was no detectable renin in the coronary effluent prior to ischemia. With reperfusion, there was significant renin overflow into the coronary effluent accompanied by ventricular fibrillation (VF) (FIG. 12).
Traces in the left panels were recorded at the end of the equilibration period prior to ischemia, showing normal sinus rhythm.

renin = biological target: T2, renin (Homo sapiens, UniProt P00797); conditions: specific renin inhibitor; cited from earlier work
T2 sequence (P00797 67-406): T1 sequence (P00797 67-406)

cardiac mast cells = assay: renin in coronary effluent of normoxic Langendorff-perfused hearts challenged with 48/80; parameters: species or system guinea pig; conditions: lodoxamide 10 μM or BILA 2157 100 nM prior to 48/80
Experimental: Renin was measured in the coronary effluent of normoxic Langendorff-perfused guinea-pig hearts, ex vivo. […] When hearts were perfused with the mast-cell stabilizer lodoxamide (FIG. 9B) or the renin inhibitor BILA2157 prior to 48/80 challenge (FIGS. 9A and B), renin overflow was abolished.

## CC(C)C[C@H](O)[C@H](O)[C@H](CC1CCCCC1)NC(=O)[C@@H](CC(=O)N(CC(=O)N(C)CCc1ccccn1)CC1CCCCC1)Cc1csc(N)n1 [BILA2157]
[1]
  effect on 48/80 potentiation of norepinephrine release: abolished
mast-cell-derived renin; 240 nM angiotensinogen, initially and 48 hours after degranulation with 48/80
  share of ANG I activity due to BILA2157-sensitive renin: about 70%
mast-cell-derived renin; increasing angiotensinogen concentrations
  share of total ANG I formed that originates from renin (BILA2157-sensitive): ~70%
[2]
  chronotropic response to 48/80: markedly abbreviated
[2]; listed as BILA 2157
  chronotropic response to 48/80: diminishes the chronotropic response
guinea-pig hearts
  ventricular fibrillation during reperfusion: no ventricular fibrillation; also recorded: ventricular fibrillation did not occur
  renin overflow into coronary effluent on reperfusion: abrogated
guinea-pig hearts; listed as BILA 2157
  ventricular fibrillation during reperfusion: prevent ventricular fibrillation; also recorded: essentially no ventricular fibrillation
  renin overflow into coronary effluent on reperfusion: prevented renin release
renin
  IC50: 1 nM
Cardiac mast cells
  renin overflow into coronary effluent after 48/80 challenge: abolished
Cardiac mast cells; listed as BILA 2157
  renin overflow into coronary effluent after 48/80 challenge: markedly diminished
